For orientation: pIC50 means the IC50 on a negative log10 scale, so that one unit is a factor of ten. A low value points to a large IC50.

The results in this text go back to patent US20200172529A1, “Chemical Compound, Pharmaceutical Composition Thereof, and Use and Application Thereof” (Beijing Hanmi Pharm. Co., Ltd., priority 2017, published 2020).

Assay type in all cases: biochemical
For one experiment, the target named is T1, JAK3 kinase (Homo sapiens, UniProt P52333).
T1 sequence (P52333 1-1124): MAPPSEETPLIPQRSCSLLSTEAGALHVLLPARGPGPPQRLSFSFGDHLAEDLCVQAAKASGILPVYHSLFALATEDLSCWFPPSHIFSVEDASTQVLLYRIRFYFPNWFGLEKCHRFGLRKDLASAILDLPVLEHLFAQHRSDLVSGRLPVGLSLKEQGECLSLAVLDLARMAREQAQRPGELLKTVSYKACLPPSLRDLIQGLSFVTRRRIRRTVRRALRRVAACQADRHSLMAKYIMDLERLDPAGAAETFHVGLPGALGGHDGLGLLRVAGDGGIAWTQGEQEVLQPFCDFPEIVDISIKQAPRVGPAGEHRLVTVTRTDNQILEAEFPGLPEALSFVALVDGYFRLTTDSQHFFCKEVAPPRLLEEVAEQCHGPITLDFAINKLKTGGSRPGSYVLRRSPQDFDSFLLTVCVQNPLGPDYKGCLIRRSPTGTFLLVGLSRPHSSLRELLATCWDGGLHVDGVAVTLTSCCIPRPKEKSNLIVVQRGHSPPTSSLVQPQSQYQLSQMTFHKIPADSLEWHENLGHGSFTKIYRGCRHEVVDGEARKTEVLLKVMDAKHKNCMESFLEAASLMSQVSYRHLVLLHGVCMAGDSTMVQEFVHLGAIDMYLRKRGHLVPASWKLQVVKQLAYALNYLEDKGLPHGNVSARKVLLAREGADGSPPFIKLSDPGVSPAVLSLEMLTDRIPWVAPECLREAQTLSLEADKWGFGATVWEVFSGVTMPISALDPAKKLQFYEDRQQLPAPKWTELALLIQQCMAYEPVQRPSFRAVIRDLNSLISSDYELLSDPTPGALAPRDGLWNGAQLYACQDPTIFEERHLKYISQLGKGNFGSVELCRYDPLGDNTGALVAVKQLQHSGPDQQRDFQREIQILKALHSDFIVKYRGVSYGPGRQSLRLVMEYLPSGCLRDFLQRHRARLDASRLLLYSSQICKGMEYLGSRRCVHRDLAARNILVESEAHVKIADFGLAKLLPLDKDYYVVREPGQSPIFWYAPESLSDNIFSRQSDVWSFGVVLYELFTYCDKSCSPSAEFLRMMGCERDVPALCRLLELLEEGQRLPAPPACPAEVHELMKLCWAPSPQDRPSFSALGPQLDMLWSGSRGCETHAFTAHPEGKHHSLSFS
The experiment can be described thus: Inhibition assay of JAK3 kinase activity (ADP-Glo Kinase Assay). The text has this:
Inhibition assay of JAK3 kinase activity: the method in ADP-Glo™ Kinase Assay (Promega, V9102) was used to determine the inhibitory activity of the test compounds against JAK3 kinase.
A general note: ADP-Glo first removes unused ATP, then detects ADP through luciferase.

Another experiment addresses JAK1 kinase (Homo sapiens, UniProt P23458). The experiment is described as follows: Inhibition assay of JAK1 kinase activity (ADP-Glo Kinase Assay). The text has this:
Inhibition assay of JAK1 kinase activity: the method in ADP-Glo™ Kinase Assay (Promega, V9102) was used to determine the inhibitory activity of the test compounds against JAK1 kinase.

A further experiment addresses T2, TYK2 kinase (Homo sapiens, UniProt P29597).
T2 construct: purchased Life Technologies PR8440C
The experiment can be described thus: Inhibition assay of TYK2 kinase activity (ADP-Glo Kinase Assay). The protocol:
Determination of inhibition of TYK2 kinase activity by the examples compounds disclosed herein
Inhibition assay of TYK2 kinase activity: the method of ADP-Glo™ Kinase Assay (Promega, V9102) was used to determine the inhibitory activity of the test compounds against TYK2 kinase.
TYK2 kinase (purchased from Life Technologies, article number: PR8440C) was diluted to the 2-fold final concentration (0.8 ng/mL) using reaction buffer (40 mM Tris-HCl, pH 7.5; 20 mM MgCl2; 0.1 mg/mL BSA; 1 mM DTT), and added to a 384-well plate at 5 μL/well. The test drugs were subjected to a 10-fold gradient dilution, from 10 μM, to obtain 6 concentrations, and added to experimental wells of the 384-well plate at 2.5 μL/well. 5 μL of water and 2.5 μL of buffer were added to negative control wells. 5 μL of TYK2 and 2.5 μL of water were added to positive control wells. After incubating for 10 minutes at room temperature, the substrate ATP and polyE4Y1 (Sigma, P0275) were added at 2.5 μL/well, mixed well, and then reacted at room temperature for 60 minutes. After the reaction was completed, the kinase activity was detected according to the instruction of the kit. First, the ADP-Glo reaction reagent was added at 10 μL/well, mixed well, and reacted at room temperature for 40 minutes. The kinase detection reagent was then added at 20 μL/well, mixed well, and then reacted at room temperature for 30 minutes. The detection was then performed and the IC50s of test drugs were calculated.

The next experiment deals with JAK2 kinase (Homo sapiens, UniProt O60674). The experiment can be described thus: Inhibition assay of JAK2 kinase activity (ADP-Glo Kinase Assay). The source says:
Inhibition assay of JAK2 kinase activity: the method in ADP-Glo™ Kinase Assay (Promega, V9102) was used to determine the inhibitory activity of the test compounds against JAK2 kinase.

pIC50: −log10 of the molar value.

T2 sequence (P29597 whole entry): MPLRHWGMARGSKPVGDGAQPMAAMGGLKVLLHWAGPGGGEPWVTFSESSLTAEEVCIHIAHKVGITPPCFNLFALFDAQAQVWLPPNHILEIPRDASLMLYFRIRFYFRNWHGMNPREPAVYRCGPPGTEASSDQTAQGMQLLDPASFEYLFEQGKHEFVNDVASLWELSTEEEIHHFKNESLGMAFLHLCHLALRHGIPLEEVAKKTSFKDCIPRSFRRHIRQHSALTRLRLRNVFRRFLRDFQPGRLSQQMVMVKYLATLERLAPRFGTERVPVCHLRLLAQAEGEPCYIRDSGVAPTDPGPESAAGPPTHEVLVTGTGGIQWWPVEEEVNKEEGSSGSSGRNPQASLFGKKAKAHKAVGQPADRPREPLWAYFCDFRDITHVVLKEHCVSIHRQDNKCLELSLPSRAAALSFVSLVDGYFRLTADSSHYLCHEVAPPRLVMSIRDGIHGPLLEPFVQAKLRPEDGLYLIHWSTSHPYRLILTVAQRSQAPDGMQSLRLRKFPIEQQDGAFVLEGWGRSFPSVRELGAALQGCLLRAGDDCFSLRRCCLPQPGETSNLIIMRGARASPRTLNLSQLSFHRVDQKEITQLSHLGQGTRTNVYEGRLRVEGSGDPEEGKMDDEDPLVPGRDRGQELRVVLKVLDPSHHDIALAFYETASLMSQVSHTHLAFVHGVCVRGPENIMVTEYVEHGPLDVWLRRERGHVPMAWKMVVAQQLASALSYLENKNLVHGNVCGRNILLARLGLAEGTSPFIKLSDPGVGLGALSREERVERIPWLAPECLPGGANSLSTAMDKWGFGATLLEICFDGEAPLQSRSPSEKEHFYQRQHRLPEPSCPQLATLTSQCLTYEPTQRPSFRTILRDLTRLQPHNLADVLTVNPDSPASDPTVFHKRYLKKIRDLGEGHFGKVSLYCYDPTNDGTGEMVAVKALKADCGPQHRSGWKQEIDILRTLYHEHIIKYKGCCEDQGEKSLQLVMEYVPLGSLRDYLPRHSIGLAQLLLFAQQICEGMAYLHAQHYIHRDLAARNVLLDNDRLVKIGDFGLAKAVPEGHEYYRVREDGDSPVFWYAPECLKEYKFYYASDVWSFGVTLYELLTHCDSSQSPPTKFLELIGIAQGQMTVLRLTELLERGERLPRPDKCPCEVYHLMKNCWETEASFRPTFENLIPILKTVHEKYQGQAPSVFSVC
JAK1 kinase, sequence (P23458 whole entry): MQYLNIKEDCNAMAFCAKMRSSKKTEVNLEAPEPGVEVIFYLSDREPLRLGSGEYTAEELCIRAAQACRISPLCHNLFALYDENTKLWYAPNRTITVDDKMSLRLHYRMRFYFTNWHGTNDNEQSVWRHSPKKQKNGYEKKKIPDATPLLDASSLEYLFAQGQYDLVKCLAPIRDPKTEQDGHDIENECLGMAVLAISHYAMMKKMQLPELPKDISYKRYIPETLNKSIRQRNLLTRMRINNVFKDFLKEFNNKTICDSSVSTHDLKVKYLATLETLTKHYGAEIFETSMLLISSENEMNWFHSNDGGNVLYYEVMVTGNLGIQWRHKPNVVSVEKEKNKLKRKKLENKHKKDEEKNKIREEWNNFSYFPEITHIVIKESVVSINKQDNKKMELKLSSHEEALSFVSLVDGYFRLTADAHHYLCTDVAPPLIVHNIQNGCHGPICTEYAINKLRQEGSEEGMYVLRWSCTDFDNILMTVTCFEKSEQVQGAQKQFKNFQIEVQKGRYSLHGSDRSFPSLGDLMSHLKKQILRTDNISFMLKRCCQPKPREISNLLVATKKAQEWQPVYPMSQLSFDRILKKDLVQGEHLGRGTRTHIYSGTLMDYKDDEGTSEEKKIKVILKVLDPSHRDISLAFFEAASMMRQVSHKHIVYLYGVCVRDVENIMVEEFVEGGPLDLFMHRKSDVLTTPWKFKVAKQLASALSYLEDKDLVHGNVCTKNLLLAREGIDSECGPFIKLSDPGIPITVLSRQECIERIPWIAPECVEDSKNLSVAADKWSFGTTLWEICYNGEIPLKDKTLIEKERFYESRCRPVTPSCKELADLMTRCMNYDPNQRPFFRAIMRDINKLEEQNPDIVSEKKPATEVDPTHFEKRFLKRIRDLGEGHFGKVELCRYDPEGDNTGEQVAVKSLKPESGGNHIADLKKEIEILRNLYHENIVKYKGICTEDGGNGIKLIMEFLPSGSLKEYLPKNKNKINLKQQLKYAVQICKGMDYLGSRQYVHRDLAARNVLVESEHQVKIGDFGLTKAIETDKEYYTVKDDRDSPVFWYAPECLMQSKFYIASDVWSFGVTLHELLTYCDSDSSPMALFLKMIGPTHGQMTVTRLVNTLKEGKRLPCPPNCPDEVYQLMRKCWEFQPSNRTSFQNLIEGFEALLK
JAK2 kinase, sequence (O60674 whole entry): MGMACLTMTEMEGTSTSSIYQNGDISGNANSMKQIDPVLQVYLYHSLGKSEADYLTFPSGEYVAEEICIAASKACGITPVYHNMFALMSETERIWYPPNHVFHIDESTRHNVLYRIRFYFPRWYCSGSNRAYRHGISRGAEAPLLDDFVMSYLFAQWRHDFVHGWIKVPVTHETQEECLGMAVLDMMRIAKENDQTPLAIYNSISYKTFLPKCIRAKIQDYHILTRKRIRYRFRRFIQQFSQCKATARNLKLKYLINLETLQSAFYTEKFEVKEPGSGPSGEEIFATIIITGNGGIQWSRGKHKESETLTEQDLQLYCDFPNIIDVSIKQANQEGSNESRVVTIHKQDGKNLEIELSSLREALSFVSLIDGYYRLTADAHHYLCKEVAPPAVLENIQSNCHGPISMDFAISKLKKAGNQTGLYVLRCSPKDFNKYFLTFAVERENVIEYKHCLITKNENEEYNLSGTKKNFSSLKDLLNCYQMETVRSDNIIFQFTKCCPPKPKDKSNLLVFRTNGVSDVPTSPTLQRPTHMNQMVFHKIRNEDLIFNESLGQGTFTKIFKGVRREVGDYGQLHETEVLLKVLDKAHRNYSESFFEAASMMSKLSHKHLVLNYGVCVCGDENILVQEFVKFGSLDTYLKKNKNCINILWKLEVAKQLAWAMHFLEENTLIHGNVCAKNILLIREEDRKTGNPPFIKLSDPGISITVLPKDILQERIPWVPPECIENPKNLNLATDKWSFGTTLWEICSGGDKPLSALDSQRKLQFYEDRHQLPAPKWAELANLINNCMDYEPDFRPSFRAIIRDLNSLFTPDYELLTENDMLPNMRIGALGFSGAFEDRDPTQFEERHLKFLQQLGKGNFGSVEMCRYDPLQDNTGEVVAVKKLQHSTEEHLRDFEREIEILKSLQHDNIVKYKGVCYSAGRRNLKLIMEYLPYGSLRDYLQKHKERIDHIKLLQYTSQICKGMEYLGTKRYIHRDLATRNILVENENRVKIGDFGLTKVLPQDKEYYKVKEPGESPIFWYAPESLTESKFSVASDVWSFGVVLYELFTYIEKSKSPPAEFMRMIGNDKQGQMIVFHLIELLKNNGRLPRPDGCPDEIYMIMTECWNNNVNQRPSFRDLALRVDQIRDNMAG

`NC(=O)c1cnc(Nc2ccc3c(c2)NCC(O)CO3)nc1NC1CC1` (stereo not shown) [Example 2, 4-(cyclopropylamino)-2-((3-hydroxy-2,3,4,5-tetrahydro-benzo[b][1,4]oxazepin-7-yl)amino)pyrimidin-5-carboxamide]: the pIC50 at JAK3 kinase is above 8.00; against JAK1 kinase it was above 8.00; at TYK2 kinase it was above 8.00; on JAK2 kinase it was 7.00 to 8.00.
For the compound `NC(=O)c1cnc(Nc2ccc3c(c2)NC[C@H](O)CO3)nc1Nc1ccc2[nH]ccc2c1` [Example 34, 4-((1H-indol-5-yl)amino)-2-(((S)-2,3,4,5-tetrahydro-3-hydroxybenzo[b][1,4]oxazepin-7-yl)amino)pyrimidin-5-carboxamide], the pIC50 against JAK3 kinase, against JAK1 kinase, at TYK2 kinase and against JAK2 kinase was above 8.00 in each case.
Take `NC(=O)c1cnc(Nc2ccc3c(c2)NC[C@H](O)CO3)nc1NC1C2CC3CC1CC(O)(C3)C2` (stereo partly drawn) [Example 38, 4-((1-hydroxyadamantan-4-yl)amino)-2-(((S)-2,3,4,5-tetrahydro-3-hydroxybenzo[b][1,4]oxazepin-7-yl)amino)pyrimidin-5-carboxamide]: the pIC50 on JAK3 kinase, against JAK1 kinase, against TYK2 kinase and at JAK2 kinase was above 8.00 each time.
Take `COC12CC3CC(C1)C(Nc1nc(Nc4ccc5c(c4)NC[C@H](O)CO5)ncc1C(N)=O)C(C3)C2` (stereo partly drawn) [Example 46, 4-((5-methoxyadamantan-2-yl)amino)-2-(((S)-2,3,4,5-tetrahydro-3-hydroxybenzo[b][1,4]oxazepin-7-yl)amino)pyrimidin-5-carboxamide]: the pIC50 against JAK3 kinase, against JAK1 kinase, on TYK2 kinase and against JAK2 kinase was above 8.00 in each case.
`NC(=O)c1cnc(Nc2ccc3c(c2)NC[C@H](O)CO3)nc1NCC1CCCCC1` [Example 50, 4-((cyclohexylmethyl)amino)-2-(((S)-2,3,4,5-tetrahydro-3-hydroxybenzo[b][1,4]oxazepin-7-yl)amino)pyrimidin-5-carboxamide]: the pIC50 against JAK3 kinase is above 8.00; on JAK1 kinase, 7.00 to 8.00; at TYK2 kinase, above 8.00; on JAK2 kinase it was above 8.00.
With `NC(=O)c1cnc(Nc2ccc3c(c2)NC[C@H](O)CO3)nc1NCCCO` [Example 51, 4-((3-hydroxypropyl)amino)-2-(((S)-2,3,4,5-tetrahydro-3-hydroxybenzo[b][1,4]oxazepin-7-yl)amino)pyrimidin-5-carboxamide], the pIC50 was 7.00 to 8.00 against JAK3 kinase, 7.00 to 8.00 at JAK1 kinase, above 8.00 against TYK2 kinase and 7.00 to 8.00 against JAK2 kinase.
As for `CC(C)(C)Nc1nc(Nc2ccc3c(c2)NC[C@H](O)CO3)ncc1C(N)=O` [Example 53, 4-(tert-butylamino)-2-(((S)-2,3,4,5-tetrahydro-3-hydroxybenzo[b][1,4]oxazepin-7-yl)amino)pyrimidin-5-carboxamide], the pIC50 on JAK3 kinase is 7.00 to 8.00; at JAK1 kinase, 7.00 to 8.00; against TYK2 kinase, above 8.00; against JAK2 kinase, 7.00 to 8.00.
On to `NC(=O)c1cnc(Nc2ccc3c(c2)NC[C@H](O)CO3)nc1NC1CC(F)(F)C1` [Example 54, 4-((3,3-difluorocyclobutyl)amino)-2-(((S)-2,3,4,5-tetrahydro-3-hydroxybenzo[b][1,4]oxazepin-7-yl)amino)pyrimidin-5-carboxamide], for which the pIC50 against JAK3 kinase is 7.00 to 8.00; against JAK1 kinase, 7.00 to 8.00; against TYK2 kinase, above 8.00; against JAK2 kinase, 7.00 to 8.00.
As to `CC(Nc1nc(Nc2ccc3c(c2)NC[C@H](O)CO3)ncc1C(N)=O)C1CC1` (stereo partly drawn) [Example 55, 4-((1-cyclopropylethyl)amino)-2-(((S)-2,3,4,5-tetrahydro-3-hydroxybenzo[b][1,4]oxazepin-7-yl)amino)pyrimidin-5-carboxamide], the pIC50 at JAK3 kinase, against JAK1 kinase, at TYK2 kinase and against JAK2 kinase was above 8.00 throughout.
For `NC(=O)c1cnc(Nc2ccc3c(c2)NC[C@H](O)CO3)nc1NCC1CCC1` [Example 56, 4-((cyclobutylmethyl)amino)-2-(((S)-2,3,4,5-tetrahydro-3-hydroxybenzo[b][1,4]oxazepin-7-yl)amino)pyrimidin-5-carboxamide], the pIC50 on JAK3 kinase, against JAK1 kinase, at TYK2 kinase and on JAK2 kinase was above 8.00 each time.
Take `NC(=O)c1cnc(Nc2ccc3c(c2)NC[C@H](O)CO3)nc1NCCN1CCOCC1` [Example 61, 4-((2-morpholinoethyl)amino)-2-(((S)-2,3,4,5-tetrahydro-3-hydroxybenzo[b][1,4]oxazepin-7-yl)amino)pyrimidin-5-carboxamide]: the pIC50 against JAK3 kinase is 7.00 to 8.00; on JAK1 kinase it was 7.00 to 8.00; at TYK2 kinase it was above 8.00; at JAK2 kinase it was 7.00 to 8.00.
With `NC(=O)c1cnc(Nc2ccc3c(c2)NC[C@H](O)CO3)nc1NC1CCOC1` (stereo partly drawn) [Example 64, 4-(tetrahydrofuran-3-ylamino)-2-(((S)-2,3,4,5-tetrahydro-3-hydroxybenzo[b][1,4]oxazepin-7-yl)amino)pyrimidin-5-carboxamide], the pIC50 at JAK3 kinase was 7.00 to 8.00; against JAK1 kinase, 7.00 to 8.00; on TYK2 kinase, above 8.00; on JAK2 kinase, 7.00 to 8.00.
Regarding `C#CCNc1nc(Nc2ccc3c(c2)NC[C@H](O)CO3)ncc1C(N)=O` [Example 65, 4-(prop-2-yn-1-ylamino)-2-(((S)-2,3,4,5-tetrahydro-3-hydroxybenzo[b][1,4]oxazepin-7-yl)amino)pyrimidin-5-carboxamide], the pIC50 is 7.00 to 8.00 at JAK3 kinase, above 8.00 on JAK1 kinase, above 8.00 against TYK2 kinase and 7.00 to 8.00 at JAK2 kinase.
`CS(=O)(=O)CCNc1nc(Nc2ccc3c(c2)NC[C@H](O)CO3)ncc1C(N)=O` [Example 67, 4-((2-methanesulfonylethyl)amino)-2-(((S)-2,3,4,5-tetrahydro-3-hydroxybenzo[b][1,4]oxazepin-7-yl)amino)pyrimidin-5-carboxamide]: the pIC50 is 7.00 to 8.00 against JAK3 kinase, 7.00 to 8.00 against JAK1 kinase, above 8.00 against TYK2 kinase and 7.00 to 8.00 against JAK2 kinase.
In the case of `NC(=O)c1cnc(Nc2ccc3c(c2)NCCCO3)nc1NC1CC1` [Example 77, 4-(cyclopropylamino)-2-((2,3,4,5-tetrahydrobenzo[b][1,4]oxazepin-7-yl)amino)pyrimidin-5-carboxamide], the figures for the pIC50 against JAK3 kinase and against TYK2 kinase were 7.00 to 8.00 and above 8.00, respectively.
As for `CCCCO[C@H]1CNc2cc(Nc3ncc(C(N)=O)c(NC4CC4)n3)ccc2OC1` [Example 81, 4-(cyclopropylamino)-2-(((S)-2,3,4,5-tetrahydro-3-butoxybenzo[b][1,4]oxazepin-7-yl)amino)pyrimidin-5-carboxamide], the values for the pIC50 on JAK3 kinase, at JAK1 kinase and against TYK2 kinase were 7.00 to 8.00, 7.00 to 8.00 and above 8.00, respectively.
